From ChEMBL document CHEMBL3407452, “Linear and branched alkyl-esters and amides of gallic acid and other (mono-, di- and tri-) hydroxy benzoyl derivatives as promising anti-HCV inhibitors” (Eur J Med Chem, 2015)
Active and inactive are the calls of the source. The calls are words filed in the database; no cut-off is given here.

System: Feline coronavirus
Assay: Antiviral activity against feline coronavirus
Format: functional, organism-based
Conditions: not given

Structure (SMILES) | Activity
O=C(NCCCCN(CCCNC(=O)c1cc(O)c(O)c(O)c1)C(=O)c1cc(O)c(O)c(O)c1)c1cc(O)c(O)c(O)c1 | inactive
O=C(NCCN(CCNC(=O)c1ccc(O)c(O)c1O)CCNC(=O)c1ccc(O)c(O)c1O)c1ccc(O)c(O)c1O | inactive
O=C(OCCCCOC(=O)c1cc(O)c(O)c(O)c1)c1cc(O)c(O)c(O)c1 | inactive

System: Chikungunya virus
Assay: Antiviral activity against chikungunya virus
Format: functional
Conditions: not given

Structure (SMILES) | Activity
O=C(NCCCCN(CCCNC(=O)c1cc(O)c(O)c(O)c1)C(=O)c1cc(O)c(O)c(O)c1)c1cc(O)c(O)c(O)c1 | inactive
O=C(NCCN(CCNC(=O)c1ccc(O)c(O)c1O)CCNC(=O)c1ccc(O)c(O)c1O)c1ccc(O)c(O)c1O | inactive
O=C(OCCCCOC(=O)c1cc(O)c(O)c(O)c1)c1cc(O)c(O)c(O)c1 | inactive

System: Human respirovirus 3
Assay: Antiviral activity against human parainfluenza virus 3
Format: functional, organism-based
Conditions: not given

Structure (SMILES) | Activity
O=C(NCCCCN(CCCNC(=O)c1cc(O)c(O)c(O)c1)C(=O)c1cc(O)c(O)c(O)c1)c1cc(O)c(O)c(O)c1 | inactive
O=C(NCCN(CCNC(=O)c1ccc(O)c(O)c1O)CCNC(=O)c1ccc(O)c(O)c1O)c1ccc(O)c(O)c1O | inactive
O=C(OCCCCOC(=O)c1cc(O)c(O)c(O)c1)c1cc(O)c(O)c(O)c1 | inactive

System: Human immunodeficiency virus 2
Assay: Antiviral activity against HIV2 ROD infected in human CEM cells assessed as reduction in virus-induced cytopathicity after 4 to 5 days by microscopy based syncytium cell formation assay
Format: functional, organism-based, ISOLATE ROD, CCRF-CEM
Conditions: Human immunodeficiency virus 2, ISOLATE ROD, CCRF-CEM; read-out: EC50

Structure (SMILES) | EC50 [µM]
O=C(NCCN(CCNC(=O)c1ccc(O)c(O)c1O)CCNC(=O)c1ccc(O)c(O)c1O)c1ccc(O)c(O)c1O | > 10
O=C(OCCCCOC(=O)c1cc(O)c(O)c(O)c1)c1cc(O)c(O)c(O)c1 | > 10

System: Coxsackievirus B4
Assay: Antiviral activity against human coxsackievirus B4
Format: functional, organism-based
Conditions: not given

Structure (SMILES) | Activity
O=C(NCCCCN(CCCNC(=O)c1cc(O)c(O)c(O)c1)C(=O)c1cc(O)c(O)c(O)c1)c1cc(O)c(O)c(O)c1 | inactive
O=C(NCCN(CCNC(=O)c1ccc(O)c(O)c1O)CCNC(=O)c1ccc(O)c(O)c1O)c1ccc(O)c(O)c1O | inactive
O=C(OCCCCOC(=O)c1cc(O)c(O)c(O)c1)c1cc(O)c(O)c(O)c1 | inactive

System: Vesicular stomatitis virus
Assay: Antiviral activity against vesicular stomatitis virus
Format: functional, organism-based
Conditions: not given

Structure (SMILES) | Activity
O=C(NCCCCN(CCCNC(=O)c1cc(O)c(O)c(O)c1)C(=O)c1cc(O)c(O)c(O)c1)c1cc(O)c(O)c(O)c1 | inactive
O=C(NCCN(CCNC(=O)c1ccc(O)c(O)c1O)CCNC(=O)c1ccc(O)c(O)c1O)c1ccc(O)c(O)c1O | inactive
O=C(OCCCCOC(=O)c1cc(O)c(O)c(O)c1)c1cc(O)c(O)c(O)c1 | inactive

System: not listed separately
Assay: Cytotoxicity against human CEM cells assessed as inhibition of cell proliferation
Format: cell-based
Conditions: CEM cells (CCRF-CEM)

Structure (SMILES) | CC50 [µM]
O=C(NCCCCN(CCCNC(=O)c1cc(O)c(O)c(O)c1)C(=O)c1cc(O)c(O)c(O)c1)c1cc(O)c(O)c(O)c1 | 107
O=C(NCCN(CCNC(=O)c1ccc(O)c(O)c1O)CCNC(=O)c1ccc(O)c(O)c1O)c1ccc(O)c(O)c1O | 28
O=C(OCCCCOC(=O)c1cc(O)c(O)c(O)c1)c1cc(O)c(O)c(O)c1 | 21

System: Felid alphaherpesvirus 1
Assay: Antiviral activity against feline herpesvirus
Format: functional, organism-based
Conditions: not given

Structure (SMILES) | Activity
O=C(NCCCCN(CCCNC(=O)c1cc(O)c(O)c(O)c1)C(=O)c1cc(O)c(O)c(O)c1)c1cc(O)c(O)c(O)c1 | inactive
O=C(NCCN(CCNC(=O)c1ccc(O)c(O)c1O)CCNC(=O)c1ccc(O)c(O)c1O)c1ccc(O)c(O)c1O | inactive
O=C(OCCCCOC(=O)c1cc(O)c(O)c(O)c1)c1cc(O)c(O)c(O)c1 | inactive

System: Influenza A virus H3N2
Assay: Antiviral activity against influenza A virus H3N2
Format: functional, organism-based
Conditions: not given

Structure (SMILES) | Activity
O=C(NCCCCN(CCCNC(=O)c1cc(O)c(O)c(O)c1)C(=O)c1cc(O)c(O)c(O)c1)c1cc(O)c(O)c(O)c1 | inactive
O=C(NCCN(CCNC(=O)c1ccc(O)c(O)c1O)CCNC(=O)c1ccc(O)c(O)c1O)c1ccc(O)c(O)c1O | inactive
O=C(OCCCCOC(=O)c1cc(O)c(O)c(O)c1)c1cc(O)c(O)c(O)c1 | inactive

System: Hepatitis C virus
Assay: Antiviral activity against HCV genotype 1b I389luc-ubi-neo/NS3-3'/5.1 replicons infected in human Huh5-2 HCV subgenomic replicon-containing cells assessed as reduction in virus replication after 3 days by luciferase reporter gene assay
Format: functional, Hepacivirus hominis
Conditions: Hepatitis C virus, genotype 1b, Huh-5-2, 72 h

Structure (SMILES) | EC90 [µM]
O=C(NCCN(CCNC(=O)c1ccc(O)c(O)c1O)CCNC(=O)c1ccc(O)c(O)c1O)c1ccc(O)c(O)c1O | > 5.5
O=C(OCCCCOC(=O)c1cc(O)c(O)c(O)c1)c1cc(O)c(O)c(O)c1 | > 50

Same assay, conditions: Hepatitis C virus, genotype 1b, Huh-5-2, 72 h; read-out: EC50

Structure (SMILES) | EC50 [µM]
O=C(NCCN(CCNC(=O)c1ccc(O)c(O)c1O)CCNC(=O)c1ccc(O)c(O)c1O)c1ccc(O)c(O)c1O | > 5.5
O=C(OCCCCOC(=O)c1cc(O)c(O)c(O)c1)c1cc(O)c(O)c(O)c1 | 39

System: Influenza A virus
Assay: Antiviral activity against influenza A virus (H1N1)
Format: functional, organism-based
Conditions: not given

Structure (SMILES) | Activity
O=C(NCCCCN(CCCNC(=O)c1cc(O)c(O)c(O)c1)C(=O)c1cc(O)c(O)c(O)c1)c1cc(O)c(O)c(O)c1 | inactive
O=C(NCCN(CCNC(=O)c1ccc(O)c(O)c1O)CCNC(=O)c1ccc(O)c(O)c1O)c1ccc(O)c(O)c1O | inactive
O=C(OCCCCOC(=O)c1cc(O)c(O)c(O)c1)c1cc(O)c(O)c(O)c1 | inactive

System: not listed separately
Assay: Selectivity index, ratio of CC50 for human CEM cells to EC50 for HIV1 3B
Format: toxicity, cell-based, CCRF-CEM
Conditions: read-out: Ratio CC50/EC50

Structure (SMILES) | selectivity ratio
O=C(NCCCCN(CCCNC(=O)c1cc(O)c(O)c(O)c1)C(=O)c1cc(O)c(O)c(O)c1)c1cc(O)c(O)c(O)c1 | 6
O=C(NCCN(CCNC(=O)c1ccc(O)c(O)c1O)CCNC(=O)c1ccc(O)c(O)c1O)c1ccc(O)c(O)c1O | 10

System: Human immunodeficiency virus 1
Assay: Antiviral activity against HIV1 3B infected in human CEM cells assessed as reduction in virus-induced cytopathicity after 4 to 5 days by microscopy based syncytium cell formation assay
Format: functional, organism-based, CCRF-CEM
Conditions: Human immunodeficiency virus 1, 3B, CCRF-CEM; read-out: EC50

Structure (SMILES) | EC50 [µM]
O=C(NCCCCN(CCCNC(=O)c1cc(O)c(O)c(O)c1)C(=O)c1cc(O)c(O)c(O)c1)c1cc(O)c(O)c(O)c1 | 18
O=C(NCCN(CCNC(=O)c1ccc(O)c(O)c1O)CCNC(=O)c1ccc(O)c(O)c1O)c1ccc(O)c(O)c1O | 2.5
O=C(OCCCCOC(=O)c1cc(O)c(O)c(O)c1)c1cc(O)c(O)c(O)c1 | > 10

System: not listed separately
Assay: Cytotoxicity against human Huh5-2 cells after 72 hrs by MTS assay
Format: cell-based, Huh-5-2
Conditions: not given

Structure (SMILES) | CC50 at 72 h [µM]
O=C(NCCN(CCNC(=O)c1ccc(O)c(O)c1O)CCNC(=O)c1ccc(O)c(O)c1O)c1ccc(O)c(O)c1O | > 3.7
O=C(OCCCCOC(=O)c1cc(O)c(O)c(O)c1)c1cc(O)c(O)c(O)c1 | > 50

System: Respiratory syncytial virus
Assay: Antiviral activity against RSV
Format: functional, organism-based
Conditions: not given

Structure (SMILES) | Activity
O=C(NCCCCN(CCCNC(=O)c1cc(O)c(O)c(O)c1)C(=O)c1cc(O)c(O)c(O)c1)c1cc(O)c(O)c(O)c1 | inactive
O=C(NCCN(CCNC(=O)c1ccc(O)c(O)c1O)CCNC(=O)c1ccc(O)c(O)c1O)c1ccc(O)c(O)c1O | inactive
O=C(OCCCCOC(=O)c1cc(O)c(O)c(O)c1)c1cc(O)c(O)c(O)c1 | inactive

System: Vaccinia virus
Assay: Antiviral activity against vaccinia virus
Format: functional, organism-based
Conditions: Orthopoxvirus vaccinia

Structure (SMILES) | Activity
O=C(NCCCCN(CCCNC(=O)c1cc(O)c(O)c(O)c1)C(=O)c1cc(O)c(O)c(O)c1)c1cc(O)c(O)c(O)c1 | inactive
O=C(NCCN(CCNC(=O)c1ccc(O)c(O)c1O)CCNC(=O)c1ccc(O)c(O)c1O)c1ccc(O)c(O)c1O | inactive
O=C(OCCCCOC(=O)c1cc(O)c(O)c(O)c1)c1cc(O)c(O)c(O)c1 | inactive

System: Punta Toro virus
Assay: Antiviral activity against punta toro virus
Format: functional, organism-based
Conditions: not given

Structure (SMILES) | Activity
O=C(NCCCCN(CCCNC(=O)c1cc(O)c(O)c(O)c1)C(=O)c1cc(O)c(O)c(O)c1)c1cc(O)c(O)c(O)c1 | inactive
O=C(NCCN(CCNC(=O)c1ccc(O)c(O)c1O)CCNC(=O)c1ccc(O)c(O)c1O)c1ccc(O)c(O)c1O | inactive
O=C(OCCCCOC(=O)c1cc(O)c(O)c(O)c1)c1cc(O)c(O)c(O)c1 | inactive

System: Reovirus sp.
Assay: Antiviral activity against reovirus
Format: functional, organism-based
Conditions: not given

Structure (SMILES) | Activity
O=C(NCCCCN(CCCNC(=O)c1cc(O)c(O)c(O)c1)C(=O)c1cc(O)c(O)c(O)c1)c1cc(O)c(O)c(O)c1 | inactive
O=C(NCCN(CCNC(=O)c1ccc(O)c(O)c1O)CCNC(=O)c1ccc(O)c(O)c1O)c1ccc(O)c(O)c1O | inactive
O=C(OCCCCOC(=O)c1cc(O)c(O)c(O)c1)c1cc(O)c(O)c(O)c1 | inactive

System: Sindbis virus
Assay: Antiviral activity against sindbis virus
Format: functional, organism-based
Conditions: not given

Structure (SMILES) | Activity
O=C(NCCCCN(CCCNC(=O)c1cc(O)c(O)c(O)c1)C(=O)c1cc(O)c(O)c(O)c1)c1cc(O)c(O)c(O)c1 | inactive
O=C(NCCN(CCNC(=O)c1ccc(O)c(O)c1O)CCNC(=O)c1ccc(O)c(O)c1O)c1ccc(O)c(O)c1O | inactive
O=C(OCCCCOC(=O)c1cc(O)c(O)c(O)c1)c1cc(O)c(O)c(O)c1 | inactive
